Measurements reported in the supplement of paper PMC13380429.

Tests used:
Details in all cases: 72 h
Caco-2 [1] = assay: cell viability relative to DMSO; higher = less toxic
Calu-3 [2] = assay: as above
HepG2 [3] = assay: as above
U2OS [4] = assay: as above
Vero E6 [5] = assay: as above
Caco-2 [6] = assay: relative viability EC50 (midpoint between 100% and the lowest measured viability); higher = less toxic
Calu-3 [7] = assay: as above
HepG2 [8] = assay: as above
U2OS [9] = assay: as above
Vero E6 [10] = assay: as above
Caco-2 [11] = assay: drug sensitivity score (DSS) for viability; higher = more toxic; extreme values may be limits of the assay
Calu-3 [12] = assay: as above
HepG2 [13] = assay: as above
U2OS [14] = assay: as above
Vero E6 [15] = assay: as above

SMILES	cell viability (Caco-2 [1]; 1 nM)	cell viability (Caco-2 [1]; 10 nM)	cell viability (Caco-2 [1]; 100 nM)	cell viability (Caco-2 [1]; 1000 nM)	cell viability (Caco-2 [1]; 10000 nM)	cell viability (Calu-3 [2]; 1 nM)	cell viability (Calu-3 [2]; 10 nM)	cell viability (Calu-3 [2]; 100 nM)	cell viability (Calu-3 [2]; 1000 nM)	cell viability (Calu-3 [2]; 10000 nM)	cell viability (HepG2 [3]; 1 nM)	cell viability (HepG2 [3]; 10 nM)	cell viability (HepG2 [3]; 100 nM)	cell viability (HepG2 [3]; 1000 nM)	cell viability (HepG2 [3]; 10000 nM)	cell viability (U2OS [4]; 1 nM)	cell viability (U2OS [4]; 10 nM)	cell viability (U2OS [4]; 100 nM)	cell viability (U2OS [4]; 1000 nM)	cell viability (U2OS [4]; 10000 nM)	cell viability (Vero E6 [5]; 1 nM)	cell viability (Vero E6 [5]; 10 nM)	cell viability (Vero E6 [5]; 100 nM)	cell viability (Vero E6 [5]; 1000 nM)	cell viability (Vero E6 [5]; 10000 nM)	relative viability EC50 (Caco-2 [6])	relative viability EC50 (Calu-3 [7])	relative viability EC50 (HepG2 [8])	relative viability EC50 (U2OS [9])	relative viability EC50 (Vero E6 [10])	drug sensitivity score (Caco-2 [11])	drug sensitivity score (Calu-3 [12])	drug sensitivity score (HepG2 [13])	drug sensitivity score (U2OS [14])	drug sensitivity score (Vero E6 [15])
CC(C)(C)c1[nH]cnc1/C=c1\[nH]c(=O)/c(=C/c2ccccc2)[nH]c1=O [plinabulin]	107%	89.1%	68.6%	53.5%	37.6%	102%	87.9%	56.8%	40.7%	36.6%	108%	97.1%	50.1%	25.5%	30.9%	101%	94.9%	45.3%	22.3%	20.6%	106%	101%	32.7%	11.7%	11.4%	0.123 µM	0.0465 µM	0.0668 µM	0.0591 µM	0.0633 µM	13.1	17.3	19.7	21.3	23.9
Nc1cccc2c1C(=O)N(C1CCC(=O)NC1=O)C2=O (stereo not given) [pomalidomide]	86%	85%	103%	95%	98.3%	106%	103%	103%	105%	90.9%	104%	104%	98.5%	101%	111%	99%	97.3%	104%	96.1%	98.4%	93.5%	97.1%	89.2%	99.4%	103%	> 10 µM	> 10 µM	> 10 µM	> 10 µM	> 10 µM	0	0	0	0	0
COC(=O)C1=C(C)NC(C)=C(C(=O)OC/C=C/c2ccccc2)C1c1cccc([N+](=O)[O-])c1 (stereo not given) [pranidipine]	101%	80%	97%	91.5%	92.6%	103%	101%	99.7%	91.7%	91.8%	97.1%	102%	107%	103%	95.1%	98.1%	93%	99.6%	95.5%	94.8%	93.8%	103%	83.1%	95.1%	96.9%	> 10 µM	> 10 µM	> 10 µM	> 10 µM	> 10 µM	0	0	0	0	0
CCC1(CC)C(=O)C=CNC1=O [pyrithyldione]	100%	93.1%	93.4%	92.3%	102%	93.1%	94.1%	99.5%	99.9%	96.7%	91%	92%	94.9%	104%	95.1%	98.2%	95%	97.8%	95.1%	96.6%	93.5%	107%	97.5%	102%	93.6%	> 10 µM	> 10 µM	> 10 µM	> 10 µM	> 10 µM	0	0	0	0	0
CCC1NC(=O)c2cc(S(N)(=O)=O)c(Cl)cc2N1 (stereo not given) [quinethazone]	94.3%	108%	96.4%	97.4%	82.9%	101%	94.8%	97.5%	91.2%	95.1%	110%	103%	103%	92.6%	93.1%	91.9%	100%	93.3%	101%	105%	106%	86.7%	103%	100%	98.6%	> 10 µM	> 10 µM	> 10 µM	> 10 µM	> 10 µM	0.7	0	0	0	0
NC(=O)c1cn(Cc2c(F)cccc2F)nn1 [rufinamide]	111%	97.4%	93.3%	97.1%	104%	101%	97.7%	99.1%	101%	100%	109%	102%	94.1%	101%	97.4%	99.6%	100%	101%	98%	104%	101%	101%	101%	97.9%	103%	> 10 µM	> 10 µM	> 10 µM	> 10 µM	> 10 µM	0	0	0	0	0
O=C(CCCCCN1C(=O)c2cccc3cccc(c23)C1=O)NO [scriptaid]	107%	90.8%	97.6%	80%	2.4%	101%	102%	102%	73.7%	23.4%	108%	109%	93%	78.2%	2.9%	102%	98.6%	96.8%	72.7%	3.1%	107%	106%	103%	75.3%	0.1%	1.72 µM	1.3 µM	1.64 µM	1.45 µM	1.56 µM	8.6	8	8.8	9.4	9.3
Clc1ccc(C(Cn2ccnc2)OCc2csc3c(Cl)cccc23)c(Cl)c1 (stereo not given) [sertaconazole]	97%	101%	95%	95.6%	85.4%	106%	96.1%	106%	95.1%	96.1%	116%	96.8%	102%	105%	100%	94.1%	95.4%	98.9%	91.4%	88.6%	102%	102%	105%	105%	99.5%	> 10 µM	> 10 µM	> 10 µM	> 10 µM	> 10 µM	0.1	0	0	0	0
CC(C)(C)C(=O)Oc1ccc(S(=O)(=O)Nc2ccccc2C(=O)NCC(=O)O)cc1 [sivelestat]	91%	97%	94.1%	93.5%	91.3%	97.2%	96.1%	90.5%	103%	109%	101%	92.6%	103%	90%	98.3%	98.5%	100%	96.2%	101%	96.5%	107%	96.5%	104%	98.8%	100%	> 10 µM	> 10 µM	> 10 µM	> 10 µM	> 10 µM	0	0	0	0	0
O=C1O[C@H]([C@@H](O)CO)C([O-])=C1O.[Na+] [sodium-ascorbate]	91.7%	93.1%	98.9%	95.2%	102%	100%	102%	97%	98.5%	102%	96.8%	104%	92.1%	110%	111%	97.9%	89.9%	101%	97.7%	103%	97.5%	107%	97.2%	100%	106%	> 10 µM	> 10 µM	> 10 µM	> 10 µM	> 10 µM	0	0	0	0	0
O=C1NCN(c2ccccc2)C12CCN(CC1COc3ccccc3O1)CC2 (stereo not given) [spiroxatrine]	95.2%	101%	101%	100%	98.2%	98.3%	99%	92%	100%	104%	87.5%	94.3%	87.6%	104%	103%	106%	98%	99.3%	94.8%	99%	103%	99.8%	104%	97.9%	109%	> 10 µM	> 10 µM	> 10 µM	> 10 µM	> 10 µM	0	0	0	0	0
OC[C@H]1O[C@H](O[C@]2(CCl)O[C@H](CCl)[C@@H](O)[C@@H]2O)[C@H](O)[C@@H](O)[C@H]1Cl [sucralose]	96.8%	94.1%	99.1%	95.9%	101%	99.6%	91.8%	98.5%	99.1%	95.5%	99.1%	97.7%	96.8%	96.2%	97%	102%	100%	103%	96%	103%	100%	102%	101%	106%	92.7%	> 10 µM	> 10 µM	> 10 µM	> 10 µM	> 10 µM	0	0	0	0	0
Nc1ccc(S(=O)(=O)NC(=O)c2ccccc2)cc1 [sulfabenzamide]	92.3%	104%	100%	100%	108%	109%	101%	96.8%	106%	106%	109%	102%	99%	103%	109%	94.7%	93.9%	102%	98.1%	103%	97.4%	95.4%	92.1%	96.7%	105%	> 10 µM	> 10 µM	> 10 µM	> 10 µM	> 10 µM	0	0	0	0	0
Cc1cccc(Oc2cnc(=O)[nH]c2)c1 [tolimidone]	111%	95.7%	94.8%	95.9%	102%	108%	93.8%	92.2%	99.7%	95.8%	111%	95.4%	80.8%	94.1%	98%	103%	98.4%	103%	99.9%	104%	108%	95.4%	90.3%	95.7%	91.2%	> 10 µM	> 10 µM	> 10 µM	> 10 µM	> 10 µM	0	0	0	0	0
